Source: article PMC8539251, “Peimine, an Anti-Inflammatory Compound from Chinese Herbal Extracts, Modulates Muscle-Type Nicotinic Receptors” (International Journal of Molecular Sciences, 2021)

Tests used:
[1] = target: T1, muscle-type nicotinic acetylcholine receptor (nAChR) (Torpedo marmorata, UniProt P02711+Q6S3H8+Q6S3H9+Q6S3I0); assay: two-electrode voltage clamp in Xenopus oocytes, agonist concentration-response; format: cell-based
T1 construct: gene CHRNA1; purified native nAChR reconstituted in asolectin lipids, microtransplanted to Xenopus oocytes; with β1, γ and δ nAChR subunits (heteropentamer 2α1, β1, δ, γ)

[2] = target: T1, muscle-type nicotinic acetylcholine receptor (nAChR); assay: two-electrode voltage clamp in Xenopus oocytes, inhibition of […] ACh-elicited currents (peak; steady-state IC50 […]); format: cell-based

T1 sequence (P02711 25-461): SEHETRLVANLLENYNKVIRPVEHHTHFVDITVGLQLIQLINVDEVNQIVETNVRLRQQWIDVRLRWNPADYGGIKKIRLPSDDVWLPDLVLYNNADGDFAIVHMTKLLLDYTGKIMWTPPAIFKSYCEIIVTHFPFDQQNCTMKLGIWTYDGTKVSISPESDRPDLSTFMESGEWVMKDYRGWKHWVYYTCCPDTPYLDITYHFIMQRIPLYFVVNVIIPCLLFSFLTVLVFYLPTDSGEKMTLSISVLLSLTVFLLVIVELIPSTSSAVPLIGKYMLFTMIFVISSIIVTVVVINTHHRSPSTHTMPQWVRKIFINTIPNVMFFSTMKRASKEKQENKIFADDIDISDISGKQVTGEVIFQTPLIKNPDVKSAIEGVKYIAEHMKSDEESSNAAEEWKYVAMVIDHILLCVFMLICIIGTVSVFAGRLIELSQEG
T1 sequence (Q6S3I0 25-493): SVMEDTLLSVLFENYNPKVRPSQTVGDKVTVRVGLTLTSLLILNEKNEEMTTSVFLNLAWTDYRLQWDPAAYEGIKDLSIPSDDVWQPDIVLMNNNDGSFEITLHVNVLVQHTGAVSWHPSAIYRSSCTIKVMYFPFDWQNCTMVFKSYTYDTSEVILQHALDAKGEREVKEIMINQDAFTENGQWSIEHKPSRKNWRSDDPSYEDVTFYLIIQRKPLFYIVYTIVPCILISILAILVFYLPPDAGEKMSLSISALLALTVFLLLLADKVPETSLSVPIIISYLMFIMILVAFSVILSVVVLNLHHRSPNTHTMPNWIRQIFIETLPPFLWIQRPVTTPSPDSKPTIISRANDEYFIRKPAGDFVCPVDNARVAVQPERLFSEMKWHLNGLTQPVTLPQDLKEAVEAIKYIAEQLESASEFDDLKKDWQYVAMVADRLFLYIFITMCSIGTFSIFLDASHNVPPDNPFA
T1 sequence (Q6S3H9 18-505): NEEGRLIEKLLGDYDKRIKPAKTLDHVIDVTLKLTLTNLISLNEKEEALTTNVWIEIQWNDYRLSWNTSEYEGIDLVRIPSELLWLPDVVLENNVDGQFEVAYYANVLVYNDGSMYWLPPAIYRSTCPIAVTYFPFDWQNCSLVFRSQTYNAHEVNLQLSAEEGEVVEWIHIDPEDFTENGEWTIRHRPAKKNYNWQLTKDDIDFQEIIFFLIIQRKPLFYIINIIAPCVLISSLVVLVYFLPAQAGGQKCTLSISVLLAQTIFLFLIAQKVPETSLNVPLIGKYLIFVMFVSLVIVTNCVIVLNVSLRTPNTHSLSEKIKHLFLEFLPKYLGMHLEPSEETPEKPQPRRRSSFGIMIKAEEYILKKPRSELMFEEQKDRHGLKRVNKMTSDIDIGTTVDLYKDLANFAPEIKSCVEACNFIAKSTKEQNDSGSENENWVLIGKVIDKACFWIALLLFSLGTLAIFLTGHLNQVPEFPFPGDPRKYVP
T1 sequence (Q6S3H8 22-522): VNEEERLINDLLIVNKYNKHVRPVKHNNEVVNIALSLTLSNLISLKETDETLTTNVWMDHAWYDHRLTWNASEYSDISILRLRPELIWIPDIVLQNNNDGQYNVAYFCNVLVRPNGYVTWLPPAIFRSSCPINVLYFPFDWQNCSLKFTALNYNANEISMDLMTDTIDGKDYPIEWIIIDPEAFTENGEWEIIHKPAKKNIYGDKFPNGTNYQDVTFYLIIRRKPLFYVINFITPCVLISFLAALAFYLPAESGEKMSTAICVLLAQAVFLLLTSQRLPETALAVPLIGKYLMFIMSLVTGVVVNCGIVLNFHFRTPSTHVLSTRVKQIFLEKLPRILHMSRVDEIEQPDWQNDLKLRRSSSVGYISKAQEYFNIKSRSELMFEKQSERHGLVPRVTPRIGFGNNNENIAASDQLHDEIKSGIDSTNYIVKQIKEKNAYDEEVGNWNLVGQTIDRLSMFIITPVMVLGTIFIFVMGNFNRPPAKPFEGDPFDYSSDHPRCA

Row | SMILES | EC50 [1] | IC50 [2]
1 | CC(=O)OCC[N+](C)(C)C [ACh, acetylcholine] | 31 µM | 
2 | C[C@H]1CC[C@@H]2N(C1)C[C@H]1[C@@H]3C[C@H]4[C@@H](C[C@H](O)[C@H]5C[C@@H](O)CC[C@@]54C)[C@@H]3CC[C@@H]1[C@]2(C)O [Pm, Peimine] |  | 2900 nM
